Data taken from patent publication EP2792360A1, “(1aR,12bS)-8-cyclohexyl-11-fluoro-N-((1-methylcyclopropyl)sulfonyl)-1a-((3-methyl-3,8-diazabicyclo[3.2.1]oct-8-yl)carbonyl)-1,1a,2,2b-tetrahydrocyclopropa[d]indolo[2,1-a][2]benzazepine-5-carboxamide for use in treating HCV” (IP Gesellschaft für Management mbH, priority 2013, dated 2014).
Entries after “also recorded” stand apart in the source; their conditions may differ. Counter-ions that a name gives are not always drawn. Like-named read-outs stand apart in the source and are kept apart here. Each block holds one compound with its values, some of them ahead of it.

Columns and labels:
[1] = Relative stability (non-competitive and competitive interconversion) experiments of crystal forms of Compound 1; conditions: pXRD, DSC, 1H-NMR
Protocol: For the non-competitive experiments, only a single starting crystal form was used to study the potential conversion to another more stabb form. […] The slurry was cooled to 25-30 °C, filtered, suction dried for 1 hour and dried in a vacuum oven at 70 °C and 8 kPa absolute pressure for 12 hours. […] The slurry was cooled to 25-30 °C, filtered, suction dried for 1 hour and dried in a vacuum oven at 70 °C and 8 kPa absolute pressure for 12 hours. […] The slurry was cooled to 25-30 °C, filtered, suction dried for 1 hour and dried in a vacuum oven at 70 °C and 8 kPa absolute pressure for 12 hours.

[2] = Salt form assessment of the tosylate salt (chemical stability, disassociation, aqueous solubility); type: physicochemical
[3] = Gravimetric vapour sorption (GVS) of salts of Formula V; type: physicochemical
[4] = Polymorphism assessment of HCl Pattern 2 (heat/cool cycles in solvents, XRPD); type: physicochemical
Excerpt: . […] Table 18. Results from the polymorph assessment

[5] = Characterization of scale-up HCl Pattern 2 (Tables 16-17); type: physicochemical; conditions: for TGA heat / cool experiments: IC / TGA heat / cool experiments: XRPD: cooled and re-analysed; for solubility thermodynamic: thermodynamic from solid
[6] = VT-XRPD / VH-XRPD / drying stability of HCl salt forms of Formula V
Protocol: The humidity was controlled by mixing streams of dry and wet nitrogen, with a total flow rate of 200 mL.min-1 The relative humidity was measured by a calibrated Rotronic probe (dynamic range of 1.0 - 100%RH), located near the sample. The weight change (mass relaxation) of the sample as a function of %RH was constantly monitored by the microbalance (accuracy ±0.005 mg). Approximately 5 - 20 mg of sample was placed in a tared mesh stainless steel basket under ambient conditions. […] A moisture sorption isotherm was performed as outlined below (2 scans giving 1 complete cycle). […] Data analysis was undertaken in Microsoft Excel using DVS Analysis Suite v6.0.0.7. […] XRPD: X-Ray Powder Diffraction patterns were collected either on a Bruker AXS C2 GADDS diffractometer or a Bruker AXS D8 diffractometer. […] The beam divergence, i.e. the effective size of the X-ray beam on the sample, was approximately 4 mm. […] In a typical experiment, the sampleis exposed to the X-ray beam for 120 seconds. The software used for data collectionwas GADDS for WNT 4.1.16 and the data were analyzed and presented using Diffrac PlusEVA vl 1.0.0.2 or vl3.0.0.2. Ambient conditions: Samples run under ambient conditions were prepared as flat plate specimens using powder as received without grinding. Approximately 1 - 2 mg of the sample was lightly pressed on aglass slide to obtain a flat surface. Non-ambient conditions: Samples run under non-ambient conditions were mounted on a silicon wafer with heat-conducting compound. The sample was then heated to the appropriate temperatureat 10.C.min_1and subsequently held isothermally for 1 minute before data collection was initiated. On a Bruker D8 diffractometer, the following parameters were used: Cu Ka radiation (40 kV, 40 mA), θ - 20 goniometer, and divergence of V4 and receiving slits, a Ge monochromator and a Lynxeye detector. […] The software used for data collection was Diffrac Plus XRD Commander v2.5.0 and the data were analyzed and presented using Diffrac Plus EVA vl 1.0.0.2 or vl3.0.0.2. Samples were run under ambient conditions as flat plate specimens using powder as received. The sample was gently packed into a cavity cut into polished, zero-background (510) silicon wafer. The sample was rotated in its own plane during analysis. The details of the data collection are: · Angular range: 2 to 42°2Θ, · Step size: 0.05°2Θ, · Collection time: 0.5 s/step.

[7] = non-competitive, refluxed in deionized water at about 95 °C for 3 hours, TGA

SMILES: COc1ccc(Cl)c(S(=O)(=O)NC(=O)c2cn3cc(C(F)(F)F)cc(Cl)c3n2)c1 [Form D ({drug1d}), 8-chloro-N-[(2-chloro-5-methoxyphenyl)sulfonyl]-6-(trifluoromethyl)-imidazo[1,2-a]pyridine-2-carboxamide]
crystal form of the resulting material [1, 7]: Form A

SMILES: COc1ccc(Cl)c(S(=O)(=O)NC(=O)c2cn3cc(C(F)(F)F)cc(Cl)c3n2)c1 [Form B ({drug1b}), 8-chloro-N-[(2-chloro-5-methoxyphenyl)sulfonyl]-6-(trifluoromethyl)-imidazo[1,2-a]pyridine-2-carboxamide]
crystal form of the resulting material [1, 7]: Form A

Continued, in another order:

crystal form of the resulting material ([1]; slurry in deionized water stirred at 25 °C for about 168 hours): Form A
SMILES: COc1ccc(Cl)c(S(=O)(=O)NC(=O)c2cn3cc(C(F)(F)F)cc(Cl)c3n2)c1 [mixed Forms A and B, 8-chloro-N-[(2-chloro-5-methoxyphenyl)sulfonyl]-6-(trifluoromethyl)-imidazo[1,2-a]pyridine-2-carboxamide]

aqueous solubility [2]: good aqueous solubility | stability with regard to disassociation ([2]; compared with other salts): greater stability
SMILES: Cc1ccc(S(=O)(=O)O)cc1.Nc1[nH]ncc1-c1cc(Cl)ccc1Oc1cc(F)c(S(=O)(=O)Nc2cscn2)cc1Cl [tosylate salt, 4-[2-(5-amino-1 H-pyrazol-4-yl)-4-chlorophenoxy]-5-chloro-2-fluoro-N-(1,3-thiazol-4-yl)benzenesulfonamide tosylate]
chemical stability ([2]; in particular with regard to formulation and storage): improved chemical stability over the free base

uptake at the end of the analysis (GVS) ([3]; 25°C, equating to a tri-hydrate): 10.6 wt% | GVS: XRPD after the experiment ([3]; at the end of the experiment): no significant changes noted by XRPD | relative humidity to which the form appeared to be stable (GVS) ([3]; dehydration below 30%, rehydration by 40%): 30 %RH | XRPD Result ([4]; Solvent DCM (entry -11)): HCl Pattern 2 | XRPD Result ([4]; Solvent EtOAc (entry -08)): HCl Pattern 2 | XRPD Result ([4]; Solvent EtOH (entry -02)): HCl Pattern 2 | XRPD Result ([4]; Solvent IPA (10% water) (entry -06)): HCl Pattern 2 | XRPD Result ([4]; Solvent IPA (entry -03)): HCl Pattern 2 | XRPD Result ([4]; Solvent MEK (entry -09)): HCl Pattern 2 | XRPD Result ([4]; Solvent MeCN (entry -05)): HCl Pattern 2 | XRPD Result ([4]; Solvent MeOH (entry -01)): HCl Pattern 2 | XRPD Result ([4]; Solvent Nitromethane (entry -12)): HCl Pattern 2 | XRPD Result ([4]; Solvent TBME (entry -10)): HCl Pattern 2 | XRPD Result ([4]; Solvent THF (5% water) (entry -07)): HCl Pattern 2 | XRPD Result ([4]; Solvent THF (entry -04)): HCl Pattern 2 | form by XRPD after polymorph assessment ([4]; freeze-dried material, 20 vols solvent, heat/cool cycles RT to 50°C for three days): known form HCl Pattern 2 | KF [5]: 15.2 % water, | TGA heat / cool experiments: IC ([5]; Sample heated to 100°C): 1.6 eqsCl | TGA heat / cool experiments: XRPD ([5]; Sample heated to 100°C): Partially crystalline HCl Pattern 2 | TGA heat / cool experiments: IC ([5]; Sample heated to 140°C): 1.7 eqs Cl | TGA heat / cool experiments: XRPD ([5]; Sample heated to 140°C): Partially crystalline HCl Pattern 2 | IC ([5]; as determined): 1.7 eqs Cl (as determined) | TGA Weight loss ([5]; first step, by 100°C): 8% | solubility thermodynamic ([5]; pH 1, simulated gastric fluid, SGF (pH1.0)): 2800 µg/mL | XRPD (air dried) ([5]; scale-up HCl Pattern 2): New pattern (HCl Pattern 3) | TGA Weight loss ([5]; second step, to 140°C): 2.3% | solubility thermodynamic ([5]; simulated gastric fluid, 0.1N HCl (pH 0.9)): 3500 µg/mL | solubility thermodynamic ([5]; Water (pH 1.6)): 1600 µg/mL | TGA Weight loss ([5]; third step, to 210°C): 8.7% | VH-XRPD ([6]; between 45 and 80%RH): No change was noted between 45 and 80%RH | relative humidity to which the form is stable (VH-XRPD) ([6]; complete conversion to HCl Pattern 3 at 0.5%RH, reverted completely by 45%RH): 14 %RH | heating temperature for conversion to a new pattern (VT-XRPD) ([6]; reverted to partially crystalline HCl Pattern 2 upon cooling in air): above 80 °C
SMILES: Nc1nc2cc(-c3ccc4ncc(C(=O)N5CCOCC5)n4c3)ccc2o1 [HCl Pattern 2, (6-(2-aminobenzo[d]oxazol-5-yl)imidazo[1,2-a]pyridin-3-yl)(morpholino)methanone]
GVS ([3]; below 30%RH): Further reversible weight toss below 30%RH may indicate lower stoichiometry hydrate. | GVS ([3]; between 30-40%RH): Reversible dehydration observed between 30-40%RH. | GVS Reversible uptake ([3]; between 40-90%RH): Reversible uptake of ca. 6 wt% between 40-90%RH. | TGA heat / cool experiments ([5]; Sample heated to 210°C): Sample heated to 210°C, decomposition observed | Stability at 40°C/75%RH ([5]; XRPD, 3 weeks storage): No significant changes observed by XRPD after 3 weeks storage | KF ([5]; assuming 2 eqs Cl): corresponding to 4.3 eqs water, assuming 2 eqs Cl | IC ([5]; corrected with 15% w/w water content): 2.0 eqs Cl (corrected with 15% w/w water content) | XRPD (vacuum dried) ([5]; scale-up HCl Pattern 2): Crystalline. HCl Pattern 2; also recorded: Slight differences compared to HCl Pattern 2, possibly due to differences in crystallinity | VH-XRPD ([6]; lowering humidity, below 25%RH to 0.5%RH): The material starts to change below 25%RH, with full conversion to HCl Pattern 3 at 0.5%RH. | VH-XRPD ([6]; raising humidity, 13%RH to 45%RH): At 13%RH the material starts to revert back to HCl Pattern 2 with complete conversion by 45%RH. | VT-XRPD Heating to 100°C, then cool ([6]; scale-up HCl Pattern 2): Conversion to a new pattern at 80 °C (HCl 3), which returns to less crystalline HCl 2 upon cooling. | VT-XRPD Heating to 140°C ([6]; scale-up HCl Pattern 2): Conversion to HCl Pattern 3 at 80 °C that remains unchanged to 120°C, before losing crystallinity at higher temperature

crystal form of the resulting material [1, 7]: Form A
SMILES: COc1ccc(Cl)c(S(=O)(=O)NC(=O)c2cn3cc(C(F)(F)F)cc(Cl)c3n2)c1 [Form TS ({drug1e}), 8-chloro-N-[(2-chloro-5-methoxyphenyl)sulfonyl]-6-(trifluoromethyl)-imidazo[1,2-a]pyridine-2-carboxamide]
